For this experiment, the target named is α-amylase. Briefly: α-amylase inhibition, starch/DNSA colorimetric assay at […] nm. Type of experiment: biochemical.

As to `Cc1ccc(-c2nn(C(=O)c3ccncc3)cc2C(=O)O)cc1` [MPP, 3-(4-methylphenyl)-1-(pyridine-4-carbonyl)-1H-pyrazole-4-carboxylic acid], the “α-Amylase inhibition method IC50 value” came to 200.94 µg/mL. As for `O=C(O)c1cn(C(=O)c2ccncc2)nc1-c1ccccc1` [PPP, 3-phenyl-1-(pyridine-4-carbonyl)-1H-pyrazole-4-carboxylic acid], the “α-Amylase inhibition method IC50 value” was found to be 122.17 µg/mL.

For the origin of these results see publication PMC11411632 (RSC Advances, 2024).
